Results as given in USRE39862E1, “Unsaturated 14, 15-cyclopropanoandrostanes, a method for their production and pharmaceutical compositions containing these compounds” (Schering AG, priority 2000, dated 2007).

Experiments:
[1] = molecular target: T1, progesterone receptor of the rabbit uterus (Oryctolagus cuniculus, UniProt P06186); experiment: binding to the progesterone receptor of the rabbit uterus (reference substance progesterone)
T1 construct: from tissue; host or cells: rabbit uterus
T1 sequence (P06186 1-930): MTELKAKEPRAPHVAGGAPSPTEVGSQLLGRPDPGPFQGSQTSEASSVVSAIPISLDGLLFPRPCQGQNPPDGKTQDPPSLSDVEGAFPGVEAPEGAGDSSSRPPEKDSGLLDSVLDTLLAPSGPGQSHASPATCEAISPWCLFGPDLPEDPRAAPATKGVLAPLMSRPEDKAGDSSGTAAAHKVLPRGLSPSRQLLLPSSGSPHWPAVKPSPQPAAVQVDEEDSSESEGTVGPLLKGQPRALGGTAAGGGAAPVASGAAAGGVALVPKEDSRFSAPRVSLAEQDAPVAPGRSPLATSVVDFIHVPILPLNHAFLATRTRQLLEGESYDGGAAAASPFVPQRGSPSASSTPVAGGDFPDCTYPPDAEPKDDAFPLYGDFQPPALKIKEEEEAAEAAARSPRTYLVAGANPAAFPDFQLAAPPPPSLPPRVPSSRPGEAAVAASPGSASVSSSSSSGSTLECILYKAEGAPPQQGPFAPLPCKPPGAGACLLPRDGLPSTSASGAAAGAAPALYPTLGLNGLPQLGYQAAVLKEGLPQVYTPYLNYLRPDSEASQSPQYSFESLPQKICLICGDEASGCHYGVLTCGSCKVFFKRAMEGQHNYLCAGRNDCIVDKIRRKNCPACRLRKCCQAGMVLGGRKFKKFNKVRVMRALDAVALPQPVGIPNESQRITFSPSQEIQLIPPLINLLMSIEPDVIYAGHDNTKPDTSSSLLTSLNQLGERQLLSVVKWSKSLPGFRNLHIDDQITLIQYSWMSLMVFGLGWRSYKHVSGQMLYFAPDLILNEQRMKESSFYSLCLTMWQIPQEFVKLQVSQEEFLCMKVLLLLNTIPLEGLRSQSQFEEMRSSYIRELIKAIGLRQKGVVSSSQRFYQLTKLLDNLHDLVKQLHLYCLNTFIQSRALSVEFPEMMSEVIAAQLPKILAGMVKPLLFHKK

[2] = molecular target: T2, androgen receptor of the rat prostate (Rattus norvegicus, UniProt P15207); experiment: binding to the androgen receptor of the rat prostate (reference substance R 1881); settings: reference substance 17β-hydroxy-17α-methyl-estra-4,9,11-triene-3-one (R 1881)
T2 construct: to the androgen receptor of the rat prostate; from tissue; host or cells: rat prostate
T2 sequence (P15207 1-902): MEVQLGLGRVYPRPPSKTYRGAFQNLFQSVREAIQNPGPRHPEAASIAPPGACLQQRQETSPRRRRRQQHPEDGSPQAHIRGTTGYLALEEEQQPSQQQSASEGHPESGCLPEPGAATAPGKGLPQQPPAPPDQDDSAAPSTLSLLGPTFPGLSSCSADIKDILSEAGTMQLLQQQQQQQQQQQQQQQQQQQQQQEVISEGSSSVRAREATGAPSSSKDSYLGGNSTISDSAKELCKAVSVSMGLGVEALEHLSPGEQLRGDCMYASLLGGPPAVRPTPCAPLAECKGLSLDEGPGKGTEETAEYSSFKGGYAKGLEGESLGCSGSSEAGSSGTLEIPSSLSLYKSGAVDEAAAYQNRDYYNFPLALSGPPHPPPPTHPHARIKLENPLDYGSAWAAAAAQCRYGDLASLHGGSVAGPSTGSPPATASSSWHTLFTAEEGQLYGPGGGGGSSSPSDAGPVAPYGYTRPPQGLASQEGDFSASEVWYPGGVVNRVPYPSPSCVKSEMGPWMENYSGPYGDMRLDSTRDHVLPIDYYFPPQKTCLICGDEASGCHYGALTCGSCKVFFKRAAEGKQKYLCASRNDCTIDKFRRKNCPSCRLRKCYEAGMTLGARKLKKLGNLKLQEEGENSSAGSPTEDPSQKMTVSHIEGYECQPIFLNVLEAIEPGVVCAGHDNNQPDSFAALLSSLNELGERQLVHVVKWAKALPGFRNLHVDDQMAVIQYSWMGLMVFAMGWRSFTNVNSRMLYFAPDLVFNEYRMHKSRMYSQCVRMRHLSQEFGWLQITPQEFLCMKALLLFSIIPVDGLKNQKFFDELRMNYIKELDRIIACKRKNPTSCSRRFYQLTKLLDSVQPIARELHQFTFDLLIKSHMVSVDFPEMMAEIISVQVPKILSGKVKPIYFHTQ
Description: The 4-chloro-17β-hydroxy-14α,15α-methylene-androst-4-ene-3-one binds to the extent of 42%±3% to the androgen receptor of the rat prostate (reference substance. 17β-hydroxy-17α-methyl-estra-4,9,11-triene-3-one; R 1881).

Hershberger test = settings: in vivo
[3] = pregnancy maintenance test; settings: in vivo

C[C@]12CCC(=O)C(Cl)=C1CC[C@@H]1[C@@H]2CC[C@]2(C)[C@@H](O)C[C@@H]3C[C@]312 [Example 3, 4-Chloro-17β-hydroxy-14α,15α-methylene-androst-4-ene-3-one]
binding to the progesterone receptor [1]: practically no binding
binds to the extent of ... to the androgen receptor [2]: 42%±3%
androgenic activity in the Hershberger test (Hershberger test): distinct androgenic activity
gestagenic activity in the pregnancy maintenance test [3]: hardly any gestagenic activity
